For assay [1], the system named is pruritus associated with psoriasis vulgaris. In words: Phase 1b maximal use study: exploratory efficacy (I-NRS, PASI, IGA, BSA). The class given is in vivo, human. From the text:
Efficacy Evaluations: Change from baseline at each study visit in the I-NRS; Change from baseline at each study visit in the Psoriasis Area and Severity Index ([…]) score; PASI-75: response defined as a reduction of ≥75% from baseline at each study visit on the PASI; PASI-50: response defined as a reduction of ≥50% from baseline at each study visit on the PASI; Change from baseline at each study visit in the Investigator Global Assessment (IGA); Proportion of subjects with a ≥1-grade decrease on the IGA at each study visit; Proportion of subjects with a ≥2-grade decrease on the IGA at each study visit; and Change from baseline at each study visit in BSA affected by psoriasis.
Subject Assessments—Itch Numeric Rating Scale: The I-NRS is a 1 item daily PRO measure that the subjects use to assess pruritus severity at its worst in the 24 hours prior to the assessment based on an 11-point numeric rating scale ranging from 0 (“no itching at all”) to 10 (“worst possible itching”). The I-NRS assesses overall pruritus severity. An I-NRS score of at least 4 is required to be eligible for the study. The investigator will evaluate subject eligibility based on itch associated with PV plaques at Screening. The Baseline measurement will be collected on Study Day 1 prior to study drug administration. The change from Baseline at each study visit will be determined.
Investigator Assessments: Investigator assessments include: BSA affected by psoriasis; IGA of overall psoriasis (Apremilast (Otezla) CDER Medical Review of Celgene NDA, 2014. Accessdata.fda.gov. Accessed Aug. 8, 2017.); and PASI (Fredriksson T, Pettersson U. Severe psoriasis—oral therapy with a new retinoid. Dermatologica. 1978; 157(4):238-244.).
Body Surface Area Affected by Psoriasis: Assessment of the percentage of a subject's BSA affected by psoriasis will be made by best estimates of the investigator, using the “handprint” method where 1%=1 subject handprint. At screening and baseline this should be ≥20% of BSA. The change from baseline BSA affected by psoriasis will be determined.
Investigator Global Assessment: The IGA is a site-based clinician-reported outcome measure that assesses the overall severity of psoriasis by evaluating induration (plaque elevation), erythema, and desquamation (scaling) on a 5-point scale from 0 to 4, where 0=Clear to 4=Severe. The investigator will make this assessment to calculate the overall improvement in psoriasis (the proportion of subjects achieving a rating of “Clear” or “Almost Clear” and at least a 2-point decrease [improvement] on the 5-point scale) using the IGA. The proportion of subjects achieving at least a 1-grade and 2-grade decrease from baseline will also be calculated.
Psoriasis Area and Severity Index: The PASI score is a site-based ClinRO by which a weighted sum of erythema, scaling, and induration/thickness scores over different regions of the body is determined, using the algorithm given in Fredriksson T, Pettersson U., Dermatologica. 1978; 157(4):238-244.). Each symptom will be scored on a 5-point scale from 0 to 4, where 0=Clear and 4=Very marked. The change from Baseline in the PASI score, and the percentages of subjects who have achieved a ≥75% or ≥50% reduction from baseline (PASI-75 and PASI-50, respectively), will be determined.

For assay [2], the target named is TrkA kinase (Homo sapiens, UniProt P04629).
Chain of TrkA kinase (P04629 33-796): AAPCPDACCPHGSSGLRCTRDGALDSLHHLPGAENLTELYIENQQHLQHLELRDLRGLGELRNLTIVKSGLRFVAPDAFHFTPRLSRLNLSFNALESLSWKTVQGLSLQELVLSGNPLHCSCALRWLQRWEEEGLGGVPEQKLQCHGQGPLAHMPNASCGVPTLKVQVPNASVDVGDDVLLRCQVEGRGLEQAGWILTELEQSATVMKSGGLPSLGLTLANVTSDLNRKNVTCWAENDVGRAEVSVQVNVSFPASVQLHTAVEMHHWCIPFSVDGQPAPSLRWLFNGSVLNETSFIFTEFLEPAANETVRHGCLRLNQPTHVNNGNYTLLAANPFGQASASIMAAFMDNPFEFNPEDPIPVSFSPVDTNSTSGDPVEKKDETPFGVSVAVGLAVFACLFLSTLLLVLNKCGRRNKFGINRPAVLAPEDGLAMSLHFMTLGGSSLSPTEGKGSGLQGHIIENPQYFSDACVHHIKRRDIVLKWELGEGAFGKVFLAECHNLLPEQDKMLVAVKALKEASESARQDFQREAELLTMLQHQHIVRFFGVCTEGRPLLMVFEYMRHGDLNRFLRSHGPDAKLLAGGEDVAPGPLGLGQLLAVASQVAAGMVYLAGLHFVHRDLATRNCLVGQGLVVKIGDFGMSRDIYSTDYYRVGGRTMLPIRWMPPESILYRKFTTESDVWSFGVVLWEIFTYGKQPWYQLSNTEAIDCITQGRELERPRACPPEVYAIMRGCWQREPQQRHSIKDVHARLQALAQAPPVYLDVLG
Assay [3] concerns human keratinocyte.

As to “(9S, 10R, 12R)-10-(3′-mPEG2000-1′,3′-oxazolidine-2′,4′-dione)-2,3,9,10,11,12-hexahydro-9-methyl-1-oxo-9,12-epoxy-1H-diindolo[1,2,3-fg:3′,2′,1′-k,l]pyrrolo[3,4-i][1,6] benzodiazocine] [CT327]”, in assay [1] (Week 4), the “IGA 1-grade, % of subjects” value is listed as “(30%)”; the “IGA 2-grade, % of subjects” value is “(13.3%)”; the “NRS 3-grade, % of subjects” value is “(60.0%)”; the “NRS 50, % of subjects” value is reported as “(46.7%)”. Besides, in assay [1] (Week 4), the “NRS (% change from baseline), mean” value was −41.35%; the “PASI 50, % of subjects” value was “(33.3%)”; the “PASI 75, % of subjects” value is on record as “(10.0%)”; the “PASI (change from baseline), mean” value was −6.44. In addition, the “NRS (change from baseline), mean” value in assay [1] (Week 4, 0.5% SNA-120 (w/w) ointment twice daily, open label) was −3.4. Moreover, the “Subjects with at least a 4-grade improvement in the Itch Numeric Rating Scale (I-NRS)” value in assay [1] (post hoc analysis) was “approximately 57% of subjects”. For the same substance, the “Inhibition of TrkA kinase” value in assay [2] is “inhibitor of TrkA kinase at nanomolar levels”. Further, in assay [3], the “Inhibition of human keratinocyte proliferation in vitro” value is on record as “clear inhibitory activity”.

The values above are taken from US20190209472A1, “FORMULATIONS FOR DERMAL DELIVERY OF POLYMER CONJUGATES OF INDOLOCARBAZOLE COMPOUNDS WITH REDUCED EXPOSURE” (Sienna Biopharmaceuticals, Inc., priority 2017, published 2019).
